Common to all, as to format: functional
One assay concerns Staphylococcus aureus. The assay can be described thus: Anti-bacterial activity against methicillin-resistant Staphylococcus aureus N315 assessed as inhibition of bacterial growth. The settings on record: Staphylococcus aureus, N315; read-out: MIC.
A further assay relates to Klebsiella pneumoniae. The assay can be described thus: Anti-bacterial activity against Klebsiella pneumoniae KPN325 assessed as inhibition of bacterial growth. Conditions: Klebsiella pneumoniae, KPN325; read-out: MIC.
The test system of assay [1] is Escherichia coli. The assay can be described thus: Reduction of biofilm virulent factors in Escherichia coli ATCC 25922 assessed as decrease in extracellular polymeric substances (EPS) by measuring optical density at 490 nm at 1 times of MIC concentration by congo red binding assay (reference value: 0.028 to 0.031).
Assay [2] concerns Acinetobacter baumannii. The assay can be described thus: Anti-bacterial activity against Acinetobacter baumannii assessed as growth inhibition by measuring optical density measured at 4 time of MIC in presence of 1/8 times of MIC of norfloxacin by Checkerboard assay (reference value: 0.152).
For assay [3], the system named is Acinetobacter baumannii. Description: Anti-bacterial activity against Acinetobacter baumannii assessed as growth inhibition by measuring optical density measured at 4 time of MIC in presence of 2 times of MIC of norfloxacin by Checkerboard assay (reference value: 0.152).
For assay [4], the system named is Acinetobacter baumannii. Description: Anti-bacterial activity against Acinetobacter baumannii assessed as growth inhibition by measuring optical density measured at 1/4 time of MIC in presence of 1/8 times of MIC of norfloxacin by Checkerboard assay (reference value: 0.152).
Assay [5] concerns Escherichia coli. Description: Anti-bacterial activity against Escherichia coli ATCC 25922 assessed as growth inhibition by measuring optical density measured at 1/2 time of MIC in presence of 1/2 times of MIC of norfloxacin by Checkerboard assay (reference value: 0.124).
For assay [6], the system named is Acinetobacter baumannii. Description: Reduction in metabolic activity of Acinetobacter baumannii at 2 times of MIC concentration relative to control. Details: scale not given: the % may be the effect or the level left.

In brackets after ≈: the same amount, converted by molar mass.

With `CCCCc1nc(Cl)c(C2NC(=O)NC(CN3CCN(C(=O)/C(=N/OC)c4csc(N)n4)CC3)=C2C(=O)OCC)[nH]1` (stereo not drawn), the MIC was found to be 26 µM (≈ 15.8 µg/mL) in the assay on Staphylococcus aureus and 53 µM (≈ 32.2 µg/mL) in the assay with Klebsiella pneumoniae. In addition, the OD in the assay with Escherichia coli [1] is listed as 0.071; in the assay on Acinetobacter baumannii [2], 0.118; in the assay on Acinetobacter baumannii [3], 0.051; with Acinetobacter baumannii [4] it was 0.127; in the assay with Escherichia coli [5] it was 0.107. In the assay on Acinetobacter baumannii [6], this compound yielded an Activity of 66.3%.

For orientation: MIC means the least concentration at which growth counts as inhibited.

The values are drawn from ChEMBL document CHEMBL5505979, “Novel aminothiazoximone-corbelled ethoxycarbonylpyrimidones with antibiofilm activity to conquer Gram-negative bacteria through potential multitargeting effects” (Eur J Med Chem, 2024).
